Values of other authors as cited in patent US11351146B2, “Topical compositions for the treatment of cutaneous leishmaniasis” (AC BIOSCIENCE SA, priority 2017, dated 2022).

What was measured:
intracellular amastigote = details: versus glucantime
[1] = system: L. mexicana, L. infantum and L. major promastigotes

CCOC(=O)c1cccc(NC(=O)CCl)c1 [MF 29, 3-(2-chloroacetamido) ethyl benzoate]
fold more active than glucantime (intracellular amastigote): 400 fold | effect on promastigotes strains ([1]; L. mexicana, L. infantum and L. major promastigotes): high effect | fold more active than glucantime ([1]; promastigote, versus glucantime): 400 fold
